Data: patent publication US20250163056A1, “NONMUSCLE MYOSIN II INHIBITORS” (The University of Florida Research Foundation, Inc., priority 2018, published 2025)

How the values were obtained:
[1] = target: Bovine cardiac myosin (Bos taurus (Bovine), UniProt Q9BE39); test: Cardiac muscle myosin II actin-activated ATPase assay (NADH-coupled); type: biochemical; set-up: key to Ratio CMMII:NMII Ki/EC50: NMII-sel: no Ki value for cardiac myosin II could be determined; the compounds had no detectable inhibitory properties versus the cardiac myosin II; details: for Ratio CMMII:NMII Ki/EC50: cardiac myosin II Ki over nonmuscle myosin II EC50; for Ki: 300 nM cardiac myosin, 10 μM actin, 25° C., read-out: CMMII KI
Sequence of Bovine cardiac myosin (Q9BE39 whole entry): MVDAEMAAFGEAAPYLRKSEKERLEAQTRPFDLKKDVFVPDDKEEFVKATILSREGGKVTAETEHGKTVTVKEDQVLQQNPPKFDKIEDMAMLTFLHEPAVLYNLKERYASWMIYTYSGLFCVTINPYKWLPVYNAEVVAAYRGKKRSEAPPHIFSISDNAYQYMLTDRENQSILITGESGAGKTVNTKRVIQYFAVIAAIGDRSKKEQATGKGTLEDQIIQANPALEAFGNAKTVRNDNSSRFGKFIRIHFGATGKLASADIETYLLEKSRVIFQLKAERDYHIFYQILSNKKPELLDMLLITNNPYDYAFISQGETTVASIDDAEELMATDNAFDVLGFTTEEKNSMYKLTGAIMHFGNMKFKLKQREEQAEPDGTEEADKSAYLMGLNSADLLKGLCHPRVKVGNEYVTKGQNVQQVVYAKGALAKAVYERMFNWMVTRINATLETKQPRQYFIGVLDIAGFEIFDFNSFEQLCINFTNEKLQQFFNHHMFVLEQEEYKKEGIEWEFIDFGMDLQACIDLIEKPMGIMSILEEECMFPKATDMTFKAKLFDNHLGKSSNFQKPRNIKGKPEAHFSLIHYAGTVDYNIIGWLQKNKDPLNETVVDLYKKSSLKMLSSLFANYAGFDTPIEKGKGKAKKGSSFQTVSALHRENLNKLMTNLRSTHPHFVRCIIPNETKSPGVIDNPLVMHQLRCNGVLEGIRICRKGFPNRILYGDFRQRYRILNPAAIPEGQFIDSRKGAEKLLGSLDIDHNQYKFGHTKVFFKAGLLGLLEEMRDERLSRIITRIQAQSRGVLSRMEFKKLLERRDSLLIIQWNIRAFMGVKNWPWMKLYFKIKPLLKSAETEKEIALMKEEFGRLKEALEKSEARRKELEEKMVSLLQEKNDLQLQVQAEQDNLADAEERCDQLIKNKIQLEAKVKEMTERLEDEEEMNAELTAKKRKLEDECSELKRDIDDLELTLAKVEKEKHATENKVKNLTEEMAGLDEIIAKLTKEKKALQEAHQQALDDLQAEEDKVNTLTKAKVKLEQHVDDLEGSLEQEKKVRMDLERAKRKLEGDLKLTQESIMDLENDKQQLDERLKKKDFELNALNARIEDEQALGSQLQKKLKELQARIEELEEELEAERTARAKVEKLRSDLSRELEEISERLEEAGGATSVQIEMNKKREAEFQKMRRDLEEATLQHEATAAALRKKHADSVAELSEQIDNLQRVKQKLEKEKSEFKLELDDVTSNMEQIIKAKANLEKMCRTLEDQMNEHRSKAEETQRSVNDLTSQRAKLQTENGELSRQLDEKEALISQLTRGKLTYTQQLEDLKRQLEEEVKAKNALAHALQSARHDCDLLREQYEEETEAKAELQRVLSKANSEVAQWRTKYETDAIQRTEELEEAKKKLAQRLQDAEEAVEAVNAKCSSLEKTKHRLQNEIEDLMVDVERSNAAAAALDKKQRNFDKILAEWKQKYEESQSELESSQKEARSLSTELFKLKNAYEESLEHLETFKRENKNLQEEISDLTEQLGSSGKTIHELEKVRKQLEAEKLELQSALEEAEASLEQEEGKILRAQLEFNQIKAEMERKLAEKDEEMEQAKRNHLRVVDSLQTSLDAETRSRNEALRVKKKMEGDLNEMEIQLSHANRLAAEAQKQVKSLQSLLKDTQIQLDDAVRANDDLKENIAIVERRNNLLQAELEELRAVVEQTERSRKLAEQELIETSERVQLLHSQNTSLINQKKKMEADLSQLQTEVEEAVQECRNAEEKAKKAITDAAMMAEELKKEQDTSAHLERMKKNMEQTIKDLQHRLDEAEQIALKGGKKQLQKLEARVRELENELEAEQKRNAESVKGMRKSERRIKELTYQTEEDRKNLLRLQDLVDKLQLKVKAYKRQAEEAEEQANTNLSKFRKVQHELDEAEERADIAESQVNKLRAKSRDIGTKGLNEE
Sequence of Bovine cardiac myosin (P85100 whole entry partner): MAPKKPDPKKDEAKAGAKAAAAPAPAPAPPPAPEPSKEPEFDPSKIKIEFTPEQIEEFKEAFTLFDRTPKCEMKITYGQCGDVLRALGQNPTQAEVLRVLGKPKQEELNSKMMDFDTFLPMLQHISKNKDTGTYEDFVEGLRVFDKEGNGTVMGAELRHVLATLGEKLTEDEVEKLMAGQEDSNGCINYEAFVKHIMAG
Sequence of Bovine cardiac myosin (Q3SZE5 whole entry partner): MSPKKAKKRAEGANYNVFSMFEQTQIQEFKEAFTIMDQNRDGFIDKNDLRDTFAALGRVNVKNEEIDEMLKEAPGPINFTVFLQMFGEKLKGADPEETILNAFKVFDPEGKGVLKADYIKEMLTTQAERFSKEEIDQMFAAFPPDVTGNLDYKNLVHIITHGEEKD
Text: (§1) The cardiac muscle myosin II actin-activated ATPase assay is a biochemical assay. Specifically, it is an NADH (nicotinamide adenine dinucleotide)-coupled ATPase assay that relies on NADH fluorescence as a readout. Cardiac myosin is a mechanochemical energy transducer that hydrolyzes ATP to generate force in the presence of its activator, F-actin. The resulting ADP is regenerated to ATP by pyruvate kinase (PK) that transforms one molecule of phosphoenolpyruvate (PEP) to pyruvate in parallel. Subsequently, pyruvate is reduced to lactate by lactate dehydrogenase (LDH) that, in turn, oxidizes one molecule of NADH to NAD. Therefore, the decrease in NADH concentration as a function of time equals the ATP hydrolysis rate. Bovine cardiac myosin is obtained from a commercial source, Cytoskeleton. PK, LDH, ATP, PEP, and NADH are obtained from Sigma. F-actin is prepared in house from Rabbit Muscle Acetone Powder. The assay is run at 25° C. in 384 well black-wall polystyrene microplates with a total volume of 20 μl per well. NADH fluorescence is monitored for 30 minutes with an EnVision Multimode Plate Reader. The slope of the fluorescence response, which is proportional to the reaction rate, is determined by simple linear regression. Final assay conditions are 300 nM cardiac myosin, 10 μM actin, 40 U/ml LDH, 200 U/ml PK, 220 μM NADH, 1 mM PEP, 1 mM ATP in a buffer containing 10 mM 3-(N-morpholino)propanesulfonic acid (pH=7.0), 2 mM MgCl2, 0.15 mM ethylene glycol-bis(p-aminoethyl ether)-N,N,N′,N′-tetraacetic acid, 0.1 mg/mL bovine serum albumin, 0.5% (V/V) dimethyl sulfoxide (DMSO) and 1 mM dithiothreitol. Prior to testing the inhibitory activity of the compounds, a two-fold dilution series starting at 10 mM compound concentration is prepared in DMSO. Subsequently, 100 nl is transferred to each well of the measuring plate containing a mixture of myosin, LDH and PK. The enzymatic reaction is started with the addition of a mixture containing ATP, PEP, NADH and actin. The highest final compound concentration is 50 uM. 20 μM para-aminoblebbistatin in 0.5% DMSO serves as the positive control and 0.5% DMSO alone is the negative control. Reaction rates are determined by using the fluorescence responses of a dilution series of NADH included in all plates and plotted as a function of inhibitor concentration. All measurements are carried out in triplicate. Inhibitory constants are determined by fitting the 16 point dose-response data to a quadratic equation corresponding to a simple one-to-one binding model.

[2] = Photostability, percentage remaining undegraded under illumination or in the dark; details: for Photostability 4 hours: percentage remaining undegraded after 4 hours illumination; for Photostability 24 hours: percentage remaining undegraded after 24 hours illumination; for Photostability Dark (24 h): percentage remaining undegraded in the dark
[3] = target: Rabbit skeletal myosin; test: Skeletal muscle myosin II actin-activated ATPase assay; type: biochemical; details: 20 nM skeletal muscle myosin II; read-out: SKMMII KI
Text: as §1
The skeletal muscle myosin II actin-activated ATPase assay is performed the same as for cardiac muscle myosin II with the following exceptions: Rabbit skeletal myosin is obtained from Cytoskeleton and the final assay conditions contain 20 nM skeletal muscle myosin II.

| SMILES | Ratio CMMII:NMII Ki/EC50 [1] | Photostability 4 hours [2] [%] | Photostability 24 hours [2] [%] | Photostability Dark (24 h) [2] [%] | Ki [3] [µM] | Ki [1] [µM] |
| --- | --- | --- | --- | --- | --- | --- |
| Cc1ccc2c(c1)C(=O)[C@]1(O)CCN(c3cc4cccnc4s3)C1=N2 [BPN-0027469] | NMII-sel | 58.8 | 44.3 | >99 | 0.68 |  |
| O=C1c2c(sc3c2CCCC3)N=C2N(c3ccccc3)CC[C@@]12O [BPN-0027043] | NMII-sel | 97.7 | 72.3 | >99 | 15 |  |
| COc1cccc(N2CC[C@@]3(O)C(=O)c4cc(C)c(C)cc4N=C23)c1 [BPN-0026496] | 31.9 | 41.7 | 3.5 | 97.9 | 15 | 83 |
| Cc1cc2c(cc1C)C(=O)[C@]1(O)CCN(c3ccc4c(c3)NCCS4)C1=N2 [BPN-0028922] | 8.8 | 86.1 | 27.7 | 94.8 | 0.77 | 9.7 |
| COc1cc(N2CC[C@@]3(O)C(=O)c4cc(F)c(C)cc4N=C23)ccn1 [BPN-0026745] | 25.2 | >99 | 94.2 | >99 | 2.6 | 73 |
| Cc1ccc2c(c1)C(=O)[C@]1(O)CCN(c3ccc4sccc4c3)C1=N2 [BPN-0026651] | NMII-sel | 73.0 | 5.8 | 97.5 | 3.9 |  |
| Cc1ccc2c(c1)C(=O)[C@]1(O)CCN(c3ccc4ccsc4c3)C1=N2 [BPN-0026650] | NMII-sel | 80.5 | 5.5 | >99 | 4.3 |  |
| Cc1cc2cc(N3CC[C@@]4(O)C(=O)c5cc(C)c(C)cc5N=C34)ccc2cn1 [BPN-0027161] | 21.8 | 78.6 | 60.2 | 98.3 | 0.24 | 24 |
| Cc1cc2c(cc1F)C(=O)[C@]1(O)CCN(c3cnn(C)c3)C1=N2 [BPN-0026746] | 3.8 | 58.8 | 10.6 | >99 | 3.6 | 17 |
| COc1cc(N2CC[C@@]3(O)C(=O)c4cc(Cl)ccc4N=C23)ccn1 [BPN-0026621] | 7.0 | 93.3 | 61.4 | 93.5 | 3.4 | 40 |
| Cc1cc2c(cc1C)C(=O)[C@]1(O)CCN(c3ccc4c(c3)NCCO4)C1=N2 [BPN-0028790] | 3.8 | 92.7 | 64 | 95.3 | 1 | 2.4 |
| Cc1ccc(N2CC[C@@]3(O)C(=O)c4cc(F)c(C)cc4N=C23)cc1 [BPN-0026579] | 5.0 | 77.3 | 8.5 | 93.7 | 0.37 | 5 |
| Cc1ccc2c(c1)C(=O)[C@]1(O)CCN(c3ccc(C#N)c(Cl)c3)C1=N2 [BPN-0026394] | NMII-sel | >99 | 98.7 | >99 | 4.8 |  |
| Cc1ccc2c(c1)C(=O)[C@]1(O)CCN(c3ccc4occc4c3)C1=N2 [BPN-0026283] | NMII-sel | 39.4 | 10.8 | 92.0 | 5 |  |
| Cc1cc2c(cc1C)C(=O)[C@]1(O)CCN(c3ccc4nc(C)c(C)cc4c3)C1=N2 [BPN-0028868] | 31.6 | 46.7 | 43.3 | 98.9 | 0.23 | 24 |
| Cc1cc2c(cc1C)C(=O)[C@]1(O)CCN(c3ccc(C#N)c(C)c3)C1=N2 [BPN-0026661] | 22.1 | 95.5 | 65.4 | 98.2 | 2.2 | 53 |
| CCc1nc2cc(N3CC[C@@]4(O)C(=O)c5cc(C)c(C)cc5N=C34)ccc2s1 [BPN-0028918] | 5.5 | 54.2 | 7.8 | >99 | 0.64 | 11 |
| Cc1cc2c(cc1C)C(=O)[C@]1(O)CCN(c3cnc4c(c3)CCCC4)C1=N2 [BPN-0028920] | NMII-sel | 36.6 | 2.5 | 98.4 | 3.9 |  |
| Cc1cc2c(cc1C)C(=O)[C@]1(O)CCN(c3cnc4sccc4c3)C1=N2 [BPN-0027489] | 33.3 | 76.1 | 8.5 | >99 | 0.94 | 26 |
| Cc1ccc2c(c1)C(=O)[C@]1(O)CCN(c3ccc4ccncc4c3)C1=N2 [BPN-0027042] | NMII-sel | 92.7 | 13.8 | >99 | 10 |  |
| N#Cc1ccc(N2CC[C@@]3(O)C(=O)c4cc(C(F)(F)F)ccc4N=C23)cc1 [BPN-0026608] | 11.6 | 86.7 | <1 | 97.5 | 1.7 | 50 |
| COc1ccc(N2CC[C@@]3(O)C(=O)c4c(sc(C)c4C)N=C23)cc1 [BPN-0026813] | 3.1 | 82.0 | <1 | >99 | 0.11 | 1.6 |
| Cc1cc2c(cc1C)C(=O)[C@]1(O)CCN(c3ccc4sc(C(C)C)nc4c3)C1=N2 [BPN-0028919] | NMII-sel | 48.4 | <1 | 98.5 | 1.4 |  |
| Cc1cc(N2CC[C@@]3(O)C(=O)c4cc(C)c(C(F)(F)F)cc4N=C23)on1 [BPN-0027346] | 6.9 | 97.7 | 98.7 | 98.1 | 2 | 33 |
| Cc1ccc2c(c1)C(=O)[C@]1(O)CCN(c3ccc4ncsc4c3)C1=N2 [BPN-0027036] | 7.3 | 90.2 | 24.7 | 97.4 | 4.9 | 22 |
| Cc1cc2c(cc1C)C(=O)[C@]1(O)CCN(c3ccc4c(c3)OCCN4)C1=N2 [BPN-0028552] | 21.7 | 87.7 | 62.2 | 91.8 | 2.5 | 26 |
| Cc1ccc2c(c1)C(=O)[C@]1(O)CCN(c3ccc4ncc(N)cc4c3)C1=N2 [BPN-0028652] | 9.6 | 86.2 | 22.8 | 98.5 | 1.3 | 80 |
